Data taken from patent US8236963B2, “Tricyclic spiro derivatives as CRTH2 modulators” (Merck Serono SA, priority 2005, dated 2012).

Columns and labels:
[1] = system: DK-PGD2-induced vascular leakage; assay: Model of DK-PGD2-induced vascular leakage in mice; format: in vivo, Balb/c mice; details: Mus musculus, 1.5 h; dose of 30 mg/kg; 30 min before DK-PGD2 challenge; Evans blue extravasation
Method: This test is described in Takeshita et al. (2004). Balb/c mice (Elevage Janvier) (8 week old) received an intradermal injection of DK-PGD2 (10 μg in 30 μl) on their shaved backs and an intravenous injection of Evans blue solution (25 mg/kg) 30 min after administration of the test molecules (spiro derivative). Ninety minutes after the challenge, the animals were sacrificed. The skin of the back was removed and blood was sampled. The extravasated dye (punch diameter: 5 mm) was extracted by 0.2 ml of formamide and was quantified by fluorescence (E1: 585 nm, E2: 660 nm). The Evans Blue extravasation ratio was expressed as the following: skin/serum×1000.

[2] = system: DNFB-induced ear swelling; assay: CHS model (contact hypersensitivity to DNFB, ear swelling); format: in vivo, Balb/c mice; details: 60 mg/kg; po; 30 min before DNFB challenge; ear thickness on day 6
Excerpt: The contact hypersensitivity model can be used to evaluate the therapeutic efficacy of spiro derivatives on skin inflammation mediated by T cells. The model is well established for characterization of compound for dermatological indications like psoriasis and allergic contact dermatitis (Xu et al. J Exp Med. 183, 1001-12, 1996). It involves a sensitization phase and a subsequent challenge with an antigen (DNFB, 2,4-dinitrofluorbenzene). […] The edema can be measured by caliper at the challenged site (ear of the mice). Intravenous or oral administration with 10% Labrasol as vehicle of the compounds of the invention 30 min before challenge with DNFB results in a decrease of the swelling and therefore reduces inflammation in the skin compared to positive controls treated with vehicle only before challenge with the antigen. Negative control mice are not sensitized, but challenged with DNFB, therefore no T cell dependent inflammation occurs and no edema is formed. Balb/c mice were obtained from CharlesRiver (Calcco, Italy). […]
Mice were sensitized and challenged to elicit CHS to DNFB. […] Ear thickness was monitored on day 6 (1 day after challenge) using a caliper (Mitutoyo, Milan, Italy). Ear swelling was calculated as ((Tn−T5)right ear−(Tn−T5)left ear), wherein Tn and T5 represent values of ear thickness at day n of investigation and day 5 prior to challenge, respectively.

CRTH2 [3] = biological target: T1, CRTH2 (Homo sapiens, UniProt Q9Y5Y4); assay: Determination of Ki (radioligand binding assay, equilibrium competition against [3H]PGD2); set-up: expressed in transfected cells; host or cells: HEK293 (EBNA) cells, membrane preparation; details: average of at least three independent dose response experiments
T1 sequence (Q9Y5Y4 1-395): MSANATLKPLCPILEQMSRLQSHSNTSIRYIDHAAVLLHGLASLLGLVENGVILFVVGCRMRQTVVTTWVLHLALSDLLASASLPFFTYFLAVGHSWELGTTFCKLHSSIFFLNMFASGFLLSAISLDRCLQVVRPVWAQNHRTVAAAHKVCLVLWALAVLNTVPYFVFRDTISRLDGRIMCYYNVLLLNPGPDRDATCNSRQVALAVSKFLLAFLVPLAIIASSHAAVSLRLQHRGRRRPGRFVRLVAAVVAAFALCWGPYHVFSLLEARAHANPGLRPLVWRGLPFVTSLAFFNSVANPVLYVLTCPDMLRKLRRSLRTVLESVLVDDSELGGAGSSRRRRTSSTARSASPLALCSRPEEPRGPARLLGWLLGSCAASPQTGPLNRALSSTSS
Method: The inhibitory activity can be investigated by a radioligand binding assay (Sawyer et al., Br. J. Pharmocol 2002, 137, 1163-72). The radioligand binding assay was performed at room temperature in binding buffer (10 mM HEPES/KOH pH […], with protease inhibitor cocktail tablets), containing 1.5 nM [^3H]PGD2 (Amersham, 156 Cie/mmol), and 10 μg of hCRTH2 HEK293 (EBNA) cell membrane protein in a final volume of 100 μl in 96 well plates (Corning, USA). Non-specific binding was determined in the presence of 1 μM PGD2 (Cayman, USA). Competing spiro-indolinones were diluted in dimethylsulphoxide so that the total volume of dimethylsulfoxide was kept constant at 1% dimethylsulphoxide (Me2SO) Serial dilutions of 100 μM and […] were prepared. 10 μl each of these spiro-indolinone stock solutions were added. Incubation (60 min at room temperature) was terminated by rapid filtration through 96 wells hydrophobic GF/C Unifilter plates (Whatman, USA). Filters were washed twice with 250 μl of Tris-HCl pH 7.4, 10 mM MnCl2, and residual radioligand bound to the filters was mixed to 100 μl of liquid scintillation cocktail (Optiphase Supermix, Perkin Elmer, USA) and binding activity was determined by counting residual radioligand using a 1450 Micro-beta scintillation counter (Wallac, UK). The following representative compounds were tested. All inhibited the binding of PGD2 to CRTH2 by more than 70%. • (1′-benzyl-5-chloro-2,2′,5′-trioxospiro[indole-3,3′-pyrrolidin]-1(2H)-yl)acetic acid • (1′-benzyl-5-fluoro-2,2′,5′-trioxospiro[indole-3,3′-pyrrolidin]-1(2H)-yl)acetic acid • 4-(1′-allyl-5-chloro-2,2′,5′-trioxospiro[indole-3,3′-pyrrolidin]-1(2H)-yl)butanoic acid • [5-chloro-1′-(2-methoxyethyl)-2,2′,5′-trioxospiro[indole-3,3′-pyrrolidin]-1(2H)-yl]acetic acid • 4-(1′-benzyl-5-chloro-2,2′,5′-trioxospiro[indole-3,3′-pyrrolidin]-1(2H)-yl)butanoic acid • (1′-benzyl-5-methoxy-2,2′,5′-trioxospiro[indole-3,3′-pyrrolidin]-1(2H)-yl)acetic acid • [5-fluoro-1′-[(2-methoxyethoxy)methyl]-2,2′,5′-trioxospiro[indole-3,3′-pyrrolidin]-1(2H)-yl]acetic acid • 4-(1′-allyl-5-fluoro-2,2′,5′-trioxospiro[indole-3,3′-pyrrolidin]-1(2H)-yl)butanoic acid • 4-(1′-benzyl-5-fluoro-2,2′,5′-trioxospiro[indole-3,3′-pyrrolidin]-1(2H)-yl)butanoic acid
Ki values were determined by equilibrium competition binding experiments against [^3H]PGD2. Ki values were calculated from the formula below and represent the average of at least three independent dose response experiments. The Ki values give the ligand concentrations necessary to inhibit 50% of the binding of [^3H]PGD2 to CRTH2. Ki=IC50/(1+[Concentration of Ligand]/Kd)]
All experiments were performed in 96 well plates, in a final volume of 100 μl according to the above described filtration assay. The concentration of membranes and 3 [H]PGD2, as well as the positive and negative controls were identical to the conditions described above.

CRTH2 [4] = biological target: T1, CRTH2; assay: Radioligand binding assay ([3H]PGD2, hCRTH2 HEK293 (EBNA) cell membranes); set-up: expressed in transfected cells; host or cells: HEK293 (EBNA) cells, membrane preparation; details: 1.5 nM [3H]PGD2, 10 μg hCRTH2 HEK293 (EBNA) membrane protein, 60 min at room temperature
Excerpt: Human CRTH2 cDNA was amplified by PCR using a human urinary bladder cDNA library as a template and specific primers containing HindIII and BamHI restriction sites for cloning into the pCEP4 vector (Invitrogen). The vector construction is described in detail in Sawyer et al., Br. J. Pharmocol 2002, 137, 1163-72. The nucleotide sequence of the cloned cDNA was identical the previously reported hCRTH2 sequence (Nagata et al, 1999, J. Immunol. 162, 1278-1286).
HEK293 (EBNA) cells were transfected with the pCEP4-hCRTH2 construct using the calcium phosphate technique. Cells were maintained in culture at 37° C. in an atmosphere of 5% CO2 in Dulbecco's modified Eagle's F12 medium (Invitrogen), containing 10% heat-inactivated foetal calf serum (TerraCell International, Canada), 2 mM Glutamine, 100 units/ml of penicillin and 100 μg/ml streptomycin (Invitrogen). 48 hours after the transfection, cells were grown in presence of 300 μg/ml of Hygromycin B (Invitrogen) for 4 weeks and antibiotic resistant cells were amplified for cell membrane preparation.
Adherent HEK293 (EBNA) cells expressing hCRTH2 were cultured in 225 cm^2 cell culture flasks (Corning, USA) in 30 ml of medium. After two rinses of phosphate buffered saline (PBS), cells were harvested in 10 ml of PBS containing 1 mM EDTA, centrifuged at 500×g for 5 min at 4° C. and frozen at −80° C. The pellet was re-suspended in 50 mM Tris-HCl, pH 7.4, 2 mM EDTA, 250 mM Sucrose, containing protease inhibitor cocktail tablets, (Complete EDTA-free, Roche, Germany) and incubated 30 min at 4° C. Cells were disrupted by nitrogen cavitation (Parr Instruments, USA) at 4° C. (800 p.s.i. for 30 min), and centrifuged at 500×g for 10 min at 4° C. Pellet containing nuclei and cellular debris was discarded and supernatant was centrifuged 60 min at 4° C. at 45000×g. Membrane pellet was re-suspended in storage buffer (10 mM HEPES/KOH pH 7.4, 1 mM EDTA, 250 mM sucrose, protease inhibitor cocktail tablets) using Dounce homogenization and frozen in liquid nitrogen, and stored at −80° C.
The inhibitory activity can be investigated by a radioligand binding assay (Sawyer et al., Br. J. Pharmocol 2002, 137, 1163-72). The radioligand binding assay was performed at room temperature in binding buffer (10 mM HEPES/KOH pH […], with protease inhibitor cocktail tablets), containing 1.5 nM [^3H]PGD2 (Amersham, 156 Cie/mmol), and 10 μg of hCRTH2 HEK293 (EBNA) cell membrane protein in a final volume of 100 μl in 96 well plates (Corning, USA). Non-specific binding was determined in the presence of 1 μM PGD2 (Cayman, USA). Competing spiro-indolinones were diluted in dimethylsulphoxide so that the total volume of dimethylsulfoxide was kept constant at 1% dimethylsulphoxide (Me2SO) Serial dilutions of 100 μM and […] were prepared. 10 μl each of these spiro-indolinone stock solutions were added. Incubation (60 min at room temperature) was terminated by rapid filtration through 96 wells hydrophobic GF/C Unifilter plates (Whatman, USA). Filters were washed twice with 250 μl of Tris-HCl pH 7.4, 10 mM MnCl2, and residual radioligand bound to the filters was mixed to 100 μl of liquid scintillation cocktail (Optiphase Supermix, Perkin Elmer, USA) and binding activity was determined by counting residual radioligand using a 1450 Micro-beta scintillation counter (Wallac, UK). The following representative compounds were tested. […]

| Ki (CRTH2 [3]) | melting point | inhibition (CRTH2 [4]) | Structure (SMILES) | inhibition in vivo at 30 mg/kg [1] | reduction in ear swelling [2] |
| --- | --- | --- | --- | --- | --- |
|  |  |  | O=C(O)CN1C(=O)[C@]2(CC(=O)N(Cc3cccc(Cl)c3)C2=O)c2cc(Cl)ccc21 [Compound 83, (3S)-[5-chloro-1′-(3-chlorobenzyl)-2,2′,5′-trioxospiro[indole-3,3′-pyrrolidin]-1(2H)-yl]acetic acid] | 77% | 40% |
| 16 nM |  |  | O=C(O)CN1C(=O)C2(NC(=O)N(Cc3cc(Cl)ccc3F)C2=O)c2cc(Cl)ccc21 (stereo not shown) [Compound 105, [5′-chloro-1-(5-chloro-2-fluorobenzyl)-2,2′,5-trioxospiro[imidazolidine-4,3′-indol]-1′(2′H)-yl]acetic acid] | 60% | 55% |
| 3.4 nM |  |  | Cc1noc(-c2ccccc2)c1CN1CC2(CC1=O)C(=O)N(CC(=O)O)c1ccc(Cl)cc12 (stereo not shown) [Compound 114, [5-chloro-1′-[(3-methyl-5-phenylisoxazol-4-yl)methyl]-2,5′-dioxospiro[indole-3,3′-pyrrolidin]-1(2H)-yl]acetic acid] | 44% |  |
| 140 nM |  |  | O=C(O)CN1C(=O)C2(CC(=O)N(Cc3ccccc3F)C2)c2cc(Cl)ccc21 (stereo not shown) [Compound 115, [5-chloro-1′-(2-fluorobenzyl)-2,5′-dioxospiro[indole-3,3′-pyrrolidin]-1(2H)-yl]acetic acid] | 45% |  |
| 22 nM |  |  | O=C(O)CN1C(=O)C2(CC(=O)N(Cc3cc(Cl)ccc3F)C2)c2cc(Cl)ccc21 (stereo not shown) [Compound 116, [5-chloro-1′-(5-chloro-2-fluorobenzyl)-2,5′-dioxospiro[indole-3,3′-pyrrolidin]-1(2H)-yl]acetic acid] | 51% |  |
|  | 205 to 207 °C | > 70% | O=C(O)CN1C(=O)C2(CC(=O)N(Cc3ccccc3)C2=O)c2cc(Cl)ccc21 (stereo not shown) [Example 12, (1′-Benzyl-5-chloro-2,2′,5′-trioxo-spiro[indole-3,3′-pyrrolidin]-1-yl)acetic acid] |  |  |
